Measured values reported in patent US20240174622A1, “COMPOUND AND RADIOACTIVE LABELING COMPOUND” (NIHON MEDI-PHYSICS CO., LTD., priority 2021, published 2024).

Legend:
PC-3 tumor = assay: SPECT/CT, PC-3 tumor in mouse transplanted with LNCaP and PC-3; type: in vivo; conditions: 24 (and 48) hours after administration
Procedure: LNCaP cells (1.0×10^7 cells/mouse) were suspended in a mixture of PBS and Matrigel (1:1, 150 μL) and subcutaneously transplanted to the right shoulder of a male CB17/IcrJcl-Prkdc^scid mouse kept in the same manner as in Example 1-1 under isoflurane anesthesia. In addition, a suspension of PC-3 cells (1.0×10^7 cells/mouse) in a mixture of PBS and Matrigel (1:1, 150 μL) was subcutaneously transplanted into the left shoulder of the same mouse under isoflurane anesthesia. Thereafter, the mouse was kept for 40 to 60 days. In this way, a tumor-transplanted mouse in which LNCaP cells and PC-3 cells were simultaneously transplanted into one mouse was obtained. The tumor-transplanted mouse was then administered saline solution (2.7 MBq, 100 μL) of [^111In]In-PtDA from the tail vein. SPECT/CT was performed 24 and 48 hours after administration with FX3300 pre-clinical imaging system, which is manufactured by Gamma Medica-Ideas. Imaging was performed using a pinhole collimator with a diameter of 1.0 mm at a rotation radius of 35 mm, a projection time of 70 seconds, and the number of projections of 32 times under isoflurane anesthesia. After SPECT, CT (Tube voltage: 60 kV, Tube current: 350 μA) was performed. Image reconstruction was performed on the projection data of SPECT through three-dimensional ordered subset expectation maximization method (8 subsets, 5 iterations). […]

[1] = test system: PC-3 cells (PSMA-negative, human prostate cancer); assay: Binding assay using cultured cells (PC-3); type: cell-based; conditions: 37° C., 1 hour
Procedure: LNCaP cells (PSMA-positive, human prostate cancer) and PC-3 cells (PSMA-negative, human prostate cancer) were used. These cells were purchased from American Type Culture Collection and DS Biomedical, respectively. Each of the cells were cultured in RPMI 1640, which is manufactured by NACALAI TESQUE, INC. and contains antibiotics (penicillin and streptomycin) and 10% inactivated fetal bovine serum, at 37° C. under 5% CO2.
The LNCaP cells and PC-3 cells were each seeded on a 12 well plate at 4.0×10^5 cells/well, and left standing at 37° C. under 5% CO2 for 48 hours.
The culture medium was removed, and an assay medium (0.5% FBS-containing RPMI 1640 medium) solution (1 mL) containing [^111In]In-PSMA-DA1 or [^111In]In-PSMA-DB (37 kBq) was added. Thereafter, the plate was allowed to stand at 37° C. under 5% CO2 for 1 hour. […]
The radioactivity for each of the assay medium and the cell lysate was measured with a gamma counter. Separately, the total protein concentration in the cell lysate was calculated using BCA Protein Assay Kit, which is manufactured by Thermo Fisher Scientific K.K. The value (% ID/mg protein) obtained by dividing the percentage (% ID) of the sample's radioactivity amount to the added radioactivity amount by the total protein amount was calculated for each sample. […]

[2] = Evaluation of stability in plasma; type: in vitro ADME; conditions: 37° C., 24 hours
Procedure: A saline (20 μL) solution of [^111In]In-PSMA-DA1 (370 kBq) or [^90Y]Y-PSMA-DA1 (3.7 MBq) was added to mouse plasma (200 μL), and the mixture was allowed to stand at 37° C. for 24 hours (n=3). Then, MeCN (200 μL) was added, and the mixture was centrifuged at 10,000×g for 5 minutes. The supernatant was filtered, and the filtrate was analyzed by reverse phase HPLC under the following conditions.
(Analytical conditions: Cosmosil 5C18-PAQ column (4.6×250 mm); mobile phase: MeCN/H2O/TFA [20/80/0.1 (0 min) to 50/50/0.1 (30 min)]; flow rate: 1 mL/min.)
A saline (20 μL) solution of [^111In]In-PtDA (259 kBq) was added to mouse plasma (200 μL), and the mixture was allowed to stand at 37° C. for 24 hours (n=3). MeCN (400 μL) was added thereto, and the mixture was centrifuged at 10,000×g for 5 minutes. The supernatant was filtered, and the filtrate was analyzed by reverse phase HPLC under the following conditions.
Analytical conditions: Cosmosil 5C18-AR-II column (4.6×150 mm); mobile phase: MeCN/H2O/TFA [10/90/0.1 (0 min) to 70/30/0.1 (30 min)]; flow rate: 1 mL/min.

[3] = Evaluation of distribution coefficient (1-octanol/PBS); type: physicochemical; conditions: 1-octanol / PBS pH 7.4
Procedure: [^111In]In-PtDA (111 kBq) was added to a mixture of PBS (pH 7.4, 3 mL) and 1-octanol (3 mL), and the mixture was dispersed by vortexing for 2 minutes and then centrifuged at 4000×g for 5 minutes. 1 mL was recovered respectively from the 1-octanol layer and the PBS layer, and the radioactivity of each layer was measured with a gamma counter (n=3).
As the calculation formula, “(Distribution coefficient)=Log10[(radioactivity of 1-octanol layer [kBq])/(radioactivity of PBS layer [kBq])]” was used.

radioactivity signal in the PC-3 tumor in SPECT/CT (PC-3 tumor) | stably present in mouse plasma [2] | Log P (distribution coefficient) [3] | Structure (SMILES) | binding to PC-3 cells [1]
hardly observed |  |  | O=C([O-])CN(Cc1cccc(C(=O)[O-])n1)C[C@H](Cc1ccc(NC(=O)[C@H](CCCCNC(=O)CCC(=O)NCCCC[C@H](NC(=O)N[C@@H](CCC(=O)O)C(=O)O)C(=O)O)NC(=O)CCCc2ccc(I)cc2)cc1)N(CC(=O)[O-])Cc1cccc(C(=O)[O-])n1.[111In+3] [[^111In]In-Octapa-2] | 
almost no radioactive signal | ≥ 95% | −3.08±0.02 | O=C([O-])CN1CCN(C(CCC(=O)NCCC(=O)N2Cc3ccccc3-c3c(nnn3CCOCCOCCOCCOCCC(=O)NCCCC[C@H](NC(=O)N[C@@H](CCC(=O)O)C(=O)O)C(=O)O)-c3ccccc32)C(=O)[O-])CCN(CC(=O)[O-])CCN(C(CCC(=O)N[C@@H](CCCCNC(=O)CCCc2ccc(I)cc2)C(=O)O)C(=O)[O-])CC1.[111In+3] (some centres unmarked) [[^111In]In-PtDA] | 0.15 % ID/mg protein
